Where two headings read alike, the source gives them in different places.
How the values were obtained:
[1] = biological target: T1, VIM-2 metallo β-lactamase (Pseudomonas aeruginosa, UniProt Q9K2N0); assay: β-lactamase enzyme inhibition, VIM-2; assay type: biochemical; settings: Nitrocefin 100 μM, 486 nm; 15 min at 37° C. preincubation; read-out: IC50 VIM-2 (Class B)
T1 construct: made in house; host or cells: E. coli BL21(DE3)
How it was run: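 VIM-2 purified by Q sepharose anion exchange (50 mM Hepes pH 7.5, 0-600 mM NaCl gradient, two runs, >90% purity). Enzyme preincubated with inhibitor 15 min at 37° C; nitrocefin 100 μM final, absorbance at 486 nm followed 10 min. IC50 from initial hydrolysis rates versus inhibitor-free controls.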

SHV-5 β-lactamase = biological target: T2, SHV-5 β-lactamase (Klebsiella pneumoniae, UniProt P0A3M1); assay: β-lactamase enzyme inhibition, SHV-5; assay type: biochemical
T2 construct: made in house; host or cells: E. coli BL21(DE3)
How it was run: (§1)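 Native untagged enzymes expressed in E. coli BL21(DE3) and purified by cation exchange and gel filtration were preincubated with inhibitor for 15 min at 37° C. Hydrolysis was followed for 10 min: nitrocefin (100 μM final, 486 nm) for OXA-1 and p99 AmpC, imipenem (300 nm) for KPC-2, cefotaxime (260 nm) for SHV-5; IC50 from initial rates.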

OXA-1 β-lactamase = biological target: T3, OXA-1 β-lactamase (Escherichia coli, UniProt P13661); assay: β-lactamase enzyme inhibition, OXA-1; assay type: biochemical; settings: Nitrocefin 100 μM, 486 nm; 15 min at 37° C. preincubation; read-out: IC50 OXA-1 (Class D)
T3 construct: made in house; host or cells: E. coli BL21(DE3)
How it was run: as §1

[2] = tested on: K. pneumoniae 156319 expressing KPC-3; assay: broth microdilution MIC, K. pneumoniae KPC-3; assay type: cell-based; settings: for MIC of exemplary compounds in presence of fixed β-lactams, K.P. 156319 KPC-3: Fixed Mero (meropenem) 4 μg/mL
How it was run: (§2)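 First, strains were grown 3-5 hours in CAMHB; then compound dilutions (32 to 0.25 μg/mL final) received a beta-lactam overlay at 4 μg/mL final. Finally, plates were inoculated per CLSI and incubated 16-20 hours at 37° C.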

[3] = tested on: E. coli ESBL4 expressing CTX-M-15; assay: broth microdilution MIC, E. coli CTX-M-15; assay type: cell-based; settings: Fixed CAZ (ceftazidime) 4 μg/mL
How it was run: as §2

p99 AmpC β-lactamase = biological target: T4, p99 AmpC β-lactamase (Enterobacter cloacae, UniProt P05364); assay: β-lactamase enzyme inhibition, p99 AmpC; assay type: biochemical
T4 construct: made in house; host or cells: E. coli BL21(DE3)
How it was run: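 Native untagged E. cloacae p99 AmpC was expressed in E. coli BL21(DE3) and purified by cation exchange and gel filtration. Enzyme was preincubated with inhibitor at 37°C for 15 min.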

[4] = tested on: P. aeruginosa Ps296 expressing VIM-2; assay: broth microdilution MIC, P. aeruginosa VIM-2; assay type: cell-based; settings: for MIC of exemplary compounds in presence of fixed β-lactams, P. aerug. Ps296 VIM-2: Fixed Mero (meropenem) 4 μg/mL
Description: To determine the ability of test compounds to potentiate the inhibition of the growth of bacterial strains that produce beta-lactamase enzymes, classic cell based broth microdilution MIC assays were employed. Six bacteria strains producing beta-lactamase enzymes were used: E. coli expressing the Class A Extended Spectrum Beta-Lactamase (ESBL) CTX-M-15, E. cloacae expressing the Class C P99, K. pneumoniae expressing the Class A carbapenemase KPC-3, P. aeruginosa expressing the Class B carbapenemase VIM-2, K pneumoniae expressing the class A carbapenemase KPC-2 and the class B carbapenemase VIM-4, and S. aureus producing the Class A penicillinase PC-1. The assay was conducted in Cation Adjusted Mueller Hinton Broth (CAMHB, BD #212322, BD Diagnostic Systems, Sparks, Md.). Bacteria strains were grown for 3-5 hours in CAMBH broth. Test compounds were added to a microtiter plate in 2-fold serial dilutions in CAMHB in a final concentration range of 32 μg/mL to 0.25 μg/ml. An overlay of CAMHB containing a Beta-lactam was added to the compounds at a final static concentration of 4 μg/ml. […] In addition to the titration of test compounds the MICs of a panel of control beta-lactams is also tested to ensure the strains are behaving consistently from test to test. Once the test compound and antibiotics are added the plates can be inoculated according to CLSI broth microdilution method. After inoculation the plates are incubated for 16-20 hours at 37° C., then the Minimal Inhibitory Concentration (MIC) of the test compound is determined visually.
Using the methodology described above, examples of the current invention were evaluated for their ability to inhibit the growth of β-lactamase-producing bacteria in the presence of a β-lactam antibiotic.
Representative results are shown in Table 4 where A represents an MIC of the fixed β-lactam antibiotic in the presence of >32 µg/mL of a β-lactamase inhibitor of exemplary compounds, B represents the MIC in the presence of between 8 and 32 µg/mL of a β-lactamase inhibitor of exemplary compounds, and C represents the MIC in the presence of ≤4 µg/mL of a β-lactamase inhibitor of exemplary compounds. NT=Not Tested.

KPC-2 β-lactamase = biological target: T5, KPC-2 β-lactamase (Klebsiella pneumoniae, UniProt Q9F663); assay: β-lactamase enzyme inhibition, KPC-2; assay type: biochemical
T5 construct: made in house; host or cells: E. coli BL21(DE3)
How it was run: as §1

[5] = tested on: K. pneumoniae A-1797 expressing KPC-2 and VIM-4; assay: broth microdilution MIC, K. pneumoniae KPC-2 and VIM-4; assay type: cell-based; settings: for MIC of exemplary compounds in presence of fixed β-lactams, K.P. A-1797 KPC-2 VIM-4: Fixed Mero (meropenem) 4 μg/mL
How it was run: as §2

[6] = tested on: E. cloacae 144200 expressing Class C P99 AmpC; assay: broth microdilution MIC, E. cloacae P99; assay type: cell-based; settings: Fixed CAZ (ceftazidime) 4 μg/mL
How it was run: as §2

[7] = imipenem substrate, 300 nm, 15 min at 37° C. preincubation, read-out: IC50 KPC-2 (Class A)
[8] = Klebsiella pneumoniae, read-out: MIC alone

T4 sequence (P05364 21-381): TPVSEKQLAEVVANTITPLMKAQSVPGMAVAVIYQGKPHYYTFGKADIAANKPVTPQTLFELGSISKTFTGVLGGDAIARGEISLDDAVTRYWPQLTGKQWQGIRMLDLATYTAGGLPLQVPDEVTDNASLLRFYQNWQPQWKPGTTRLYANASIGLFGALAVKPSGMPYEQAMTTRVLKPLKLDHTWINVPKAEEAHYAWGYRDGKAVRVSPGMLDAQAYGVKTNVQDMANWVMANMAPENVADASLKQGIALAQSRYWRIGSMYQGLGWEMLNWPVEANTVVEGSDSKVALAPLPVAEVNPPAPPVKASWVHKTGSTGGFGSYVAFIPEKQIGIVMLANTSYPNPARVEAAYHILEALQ
T3 sequence (P13661 26-276): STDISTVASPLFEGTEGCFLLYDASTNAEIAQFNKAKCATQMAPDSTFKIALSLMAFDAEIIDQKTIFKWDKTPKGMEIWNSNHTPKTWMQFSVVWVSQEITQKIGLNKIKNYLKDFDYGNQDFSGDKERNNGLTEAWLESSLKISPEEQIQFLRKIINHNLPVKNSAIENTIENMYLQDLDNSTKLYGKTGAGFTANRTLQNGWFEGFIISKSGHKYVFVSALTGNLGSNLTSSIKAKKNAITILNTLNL
T5 sequence (Q9F663 25-293, looked up): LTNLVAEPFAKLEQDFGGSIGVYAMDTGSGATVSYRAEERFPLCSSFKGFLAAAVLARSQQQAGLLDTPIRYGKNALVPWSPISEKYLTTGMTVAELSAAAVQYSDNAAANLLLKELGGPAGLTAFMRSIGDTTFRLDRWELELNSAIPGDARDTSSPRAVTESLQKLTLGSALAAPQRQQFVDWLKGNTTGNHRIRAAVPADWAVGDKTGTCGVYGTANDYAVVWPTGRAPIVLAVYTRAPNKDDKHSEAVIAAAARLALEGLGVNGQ
T2 sequence (P0A3M1 22-286): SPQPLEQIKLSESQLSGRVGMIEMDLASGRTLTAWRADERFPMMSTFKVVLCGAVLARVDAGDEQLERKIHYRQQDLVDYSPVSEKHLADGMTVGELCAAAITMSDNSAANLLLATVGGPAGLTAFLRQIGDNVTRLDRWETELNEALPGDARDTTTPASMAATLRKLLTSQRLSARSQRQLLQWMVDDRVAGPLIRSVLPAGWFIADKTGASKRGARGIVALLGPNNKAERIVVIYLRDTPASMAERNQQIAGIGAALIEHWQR

SMILES | IC50 [1] [nM] | IC50 (SHV-5 β-lactamase) [nM] | IC50 (OXA-1 β-lactamase) [nM] | MIC of exemplary compounds in presence of fixed β-lactams, K.P. 156319 KPC-3 [2] | MIC of exemplary compounds in presence of fixed β-lactams, E. coli ESBL4 CTX-M-15 [3] | IC50 (p99 AmpC β-lactamase) [nM] | MIC of exemplary compounds in presence of fixed β-lactams, P. aerug. Ps296 VIM-2 [4] | IC50 (KPC-2 β-lactamase; [7]) [nM] | MIC of exemplary compounds in presence of fixed β-lactams, K.P. A-1797 KPC-2 VIM-4 [5] | MIC of exemplary compounds in presence of fixed β-lactams, E. cl. 144200 p99 AmpC [6] | MIC [2, 8] [µg/mL] | MIC alone ([4]; partner antibiotic alone, P. aeruginosa expressing VIM-2) [µg/mL] | MIC [5, 8] [µg/mL] | IC50 (KPC-2 β-lactamase) [nM]
O=C(CC(C(F)(F)F)C(F)(F)F)N[C@H]1Cc2cccc(C(=O)O)c2OB1O [Example 9, (R)-2-Hydroxy-3-(4,4,4-trifluoro-3-trifluoromethyl-butyrylamino)-3,4-dihydro-2H-benzo[e][1,2]oxaborinine-8-carboxylicacid] | 10000 to 100000 | < 100 | 100 to 1000 | B (B represents the MIC in the presence of between 8 and 32 g/mL of a β-lactamase inhibitor) | B (B represents the MIC in the presence of between 8 and 32 g/mL of a β-lactamase inhibitor) | < 100 | A (A represents an MIC of the fixed β-lactam antibiotic in the presence of >32 g/mL of a β-lactamase inhibitor) | 100 to 1000 | A (A represents an MIC of the fixed β-lactam antibiotic in the presence of >32 g/mL of a β-lactamase inhibitor) | C (C represents the MIC in the presence of ≤4 g/mL of a β-lactamase inhibitor) |  |  |  | 
C[C@@H](O)[C@H]1C(=O)N2C(C(=O)O)=C(S[C@@H]3CN[C@H](C(=O)N(C)C)C3)[C@H](C)[C@H]12 [Meropenem, meropenem, reference compound] |  |  |  |  |  |  |  |  |  |  | > 128 | 16 | 64 | 
O=C(CCC(F)(F)F)N[C@H]1Cc2cccc(C(=O)O)c2OB1O [Example 7, (R)-2-Hydroxy-3-(4,4,4-trifluoro-butyrylamino)-3,4-dihydro-2H-benzo[e][1,2]oxaborinine-8-carboxylic acid] | 1000 to 10000 | < 100 | < 100 | C (C represents the MIC in the presence of ≤4 g/mL of a β-lactamase inhibitor) | C (C represents the MIC in the presence of ≤4 g/mL of a β-lactamase inhibitor) | < 100 | B (B represents the MIC in the presence of between 8 and 32 g/mL of a β-lactamase inhibitor) |  | A (A represents an MIC of the fixed β-lactam antibiotic in the presence of >32 g/mL of a β-lactamase inhibitor) | C (C represents the MIC in the presence of ≤4 g/mL of a β-lactamase inhibitor) |  |  |  | < 100
CC(C)(C#N)CC(=O)N[C@H]1Cc2cccc(C(=O)O)c2OB1O [Example 43, (R)-3-(3-Cyano-3,3-dimethyl-propionylamino)-2-hydroxy-3,4-dihydro-2H-benzo[e][1,2]oxaborinine-8-carboxylic acid] | 100 to 1000 | 100 to 1000 | < 100 | C (C represents the MIC in the presence of ≤4 g/mL of a β-lactamase inhibitor) | C (C represents the MIC in the presence of ≤4 g/mL of a β-lactamase inhibitor) | 100 to 1000 |  | < 100 | B (B represents the MIC in the presence of between 8 and 32 g/mL of a β-lactamase inhibitor) | C (C represents the MIC in the presence of ≤4 g/mL of a β-lactamase inhibitor) |  |  |  | 
CS(=O)(=O)NCCC(=O)N[C@H]1Cc2ccc(F)c(C(=O)O)c2OB1O [Example 48, (R)-7-Fluoro-2-hydroxy-3-(3-methanesulfonylamino-propionylamino)-3,4-dihydro-2H-benzo[e][1,2]oxaborinine-8-carboxylic acid] | 100 to 1000 | < 100 | < 100 | C (C represents the MIC in the presence of ≤4 g/mL of a β-lactamase inhibitor) | C (C represents the MIC in the presence of ≤4 g/mL of a β-lactamase inhibitor) | < 100 |  | < 100 | B (B represents the MIC in the presence of between 8 and 32 g/mL of a β-lactamase inhibitor) | C (C represents the MIC in the presence of ≤4 g/mL of a β-lactamase inhibitor) |  |  |  | 
N#CCCC(=O)N[C@H]1Cc2ccc(F)c(C(=O)O)c2OB1O [Example 46, (R)-3-(3-Cyano-propionylamino)-7-fluoro-2-hydroxy-3,4-dihydro-2H-benzo[e][1,2]oxaborinine-8-carboxylicacid] | 100 to 1000 | < 100 | < 100 | C (C represents the MIC in the presence of ≤4 g/mL of a β-lactamase inhibitor) | C (C represents the MIC in the presence of ≤4 g/mL of a β-lactamase inhibitor) | < 100 |  | < 100 | B (B represents the MIC in the presence of between 8 and 32 g/mL of a β-lactamase inhibitor) | C (C represents the MIC in the presence of ≤4 g/mL of a β-lactamase inhibitor) |  |  |  | 
CC(=O)CCC(=O)N[C@H]1Cc2cc(F)c(F)c(C(=O)O)c2OB1O [Example 50, (R)-6,7-Difluoro-2-hydroxy-3-(4-oxo-pentanoylamino)-3,4-dihydro-2H-benzo[e][1,2]oxaborinine-8-carboxylic acid] | 100 to 1000 | < 100 | < 100 | B (B represents the MIC in the presence of between 8 and 32 g/mL of a β-lactamase inhibitor) | C (C represents the MIC in the presence of ≤4 g/mL of a β-lactamase inhibitor) | 100 to 1000 |  | < 100 | B (B represents the MIC in the presence of between 8 and 32 g/mL of a β-lactamase inhibitor) | C (C represents the MIC in the presence of ≤4 g/mL of a β-lactamase inhibitor) |  |  |  | 

Source: patent US11008346B2, “Beta-lactamase inhibitors” (priority 2014, dated 2021)
